Assay results as given in patent publication US8580940B2, “Photoporphyrinogen oxidase having activity of imparting resistance against acifluorfen and gene thereof” (Nippon Soda Co., Ltd., priority 2005, dated 2013).

Tests used:
[1] = test system: transformed Arabidopsis slr lineage (slr1790-introduced); assay: Acifluorfen resistance test, degree of necrosis on leaves, slr1790-introduced transformants; format: in vivo; details: acifluorfen 10 μM, 5 μl dropped onto leaves, 7 days after treatment, by eye on a 0 to 5 scale (5 complete death, 0 no effect)
Description: (§1) For transformants in which gene introduction was confirmed, acifluorfen resistance effect was tested. Acifluorfen was prepared as emulsion to contain 4% of effective component by mixing and solubilizing dimethylformamide and polyoxyethylene sorbitan surfactant. This was diluted with water to make the final concentration of acifluorfen 10 μM, 5 μl of which was dropped using a micropippet onto leaves of Arabidopsis wild type and transformed Arabidopsis slr lineage, in which gene introduction was confirmed, both grown to 1 to 2 cm in height in a growth chamber.
(§2) Study was continued until 7 days after the treatment with the chemicals and degree of necrosis was evaluated by eye (on a 0 to 5 scale, 0 means no effect).
(§3) Evaluation was done by eye on a 0 to 5 scale, with 5 meaning complete death and 0 meaning no effect.

[2] = test system: ATΔslr1790 strain (AT strain in which slr1790 gene was disrupted); assay: Test for inhibitory potency of protoporphyrinogen oxidase inhibitor, growth (turbidity) of ATΔslr1790 strain; format: cell-based, Synechocystis PCC6803; details: turbidity 6 days after start, 30° C., 1000 lux, BG11 liquid medium, pI50 = -log(concentration to inhibit 50% activity (M)); for IC50: Synechocystis, 144 h
Description: (§4) The AT strain obtained in Example 1 and ATΔslr1790 strain, in which slr1790 gene was disrupted by the method described in Example 4, were used. Aforedescribed BG11 liquid medium was employed. With a view to preventing reverse mutation or loss of the gene, either chloramphenicol or kanamycin was added to the medium at a final concentration of 25 μM for the AT strain and ATΔslr1790 strain, respectively, because a chloramphenicol resistance gene is introduced with protoporphyrinogen oxidase into AT strain and a kanamycin resistance gene is introduced into ATΔslr1790 strain when disrupting the gene. AT strain and ATΔslr1790 strain were precultured with shaking in BG11 liquid medium, collected during the growth phase, and suspended in fresh BG11 liquid medium supplemented with an antibiotic so that A730 became 0.1, which was used for investigation.
(§5) An active pharmaceutical ingredient of a test chemical was dissolved in DMSO and added to wells so that final concentration of agent became from 1.0×10^−4 M to 1.0×10^−9.5 M for each well (the final concentration of DMSO is 0.5%). The test includes shaking culture using a 96-well plate in a scale of 100 μl in each well at 30° C. of incubation temperature under 1000 lux of light intensity. Turbidity was measured 6 days after the start of the test and compared with solvent sample to calculate pI50 value. pI50 value=−log(concentration to inhibit 50% activity(M)) (Activity of Herbicidal Treatment)

[3] = test system: Arabidopsis wild type; assay: Acifluorfen resistance test, degree of necrosis on leaves, wild type; format: in vivo; details: acifluorfen 10 μM, 5 μl dropped onto leaves, 7 days after treatment, by eye on a 0 to 5 scale (5 complete death, 0 no effect)
Description: as §1, §2, §3

[4] = test system: AT strain (transgenic Synechocystis strain expressing Arabidopsis-derived protoporphyrinogen oxidase); assay: microbe, parasite or virus in culture; format: cell-based, Synechocystis PCC6803; details: for IC50: Synechocystis, 144 h, read-out: pI50 Value AT strain
Description: as §4, §5

[5] = test system: Amaranthus lividus; assay: Herbicidal activity, foliage treatment; format: in vivo; details: foliage spray, two weeks after the treatment, index 0-10
Description: Seeds of Amaranthus lividus were sowed on the surface of soil filled in a pot (200 cm^2) followed by covering with a little soil and then grown to 5 to 10 cm of plant length in a greenhouse. Each of water-diluted test chemical solutions was sprayed to foliage part of Amaranthus lividus with a small spray in an amount corresponding to the spray amount of 1000 litter/ha to achieve predetermined amount of agent. Cultivation was carried out in a greenhouse. Then herbicidal effect on Amaranthus lividus was examined two weeks after the treatment according to an examination criterion below.
Values 1, 3, 5, 7, and 9 indicate the intermediate value of […], 4 and 6, 6 and 8, and 8 and 10 respectively.

| SMILES | degree of necrosis, slr 52 ([1]; transformant slr 52) | degree of necrosis, slr 146 ([1]; transformant slr 146) | IC50 [2] | degree of necrosis, Arabidopsis Wild Type [3] | IC50 [4] | Herbicidal activity (foliage treatment) (herbicide index for Amaranthus lividus, 16 g ai/ha) [5] | pI50 Value ATΔslr1790 strain [2] | pI50 Value AT strain ([4]; turbidity 6 days after start, 30° C., 1000 lux, BG11 liquid medium, pI50 = -log(concentration to inhibit 50% activity (M))) |
| --- | --- | --- | --- | --- | --- | --- | --- | --- |
| O=C(O)c1cc(Oc2ccc(C(F)(F)F)cc2Cl)ccc1[N+](=O)[O-] [acifluorfen] | 1 | 1 | 3.16e-05 M | 4 | > 100 µM | 7 | – | – |
| c1cc[n+]2c(c1)-c1cccc[n+]1CC2 [diquat] | – | – | 1e-05 M | – | 6.31 µM | – | – | – |
| C#CCN1C(=O)COc2cc(F)c(N3C(=O)C4=C(CCCC4)C3=O)cc21 [flumioxazine] | – | – | – | – | – | 10 (100%) | 6.7 | 4> |
| CCOC(=O)COc1cc(-c2nn(C)c(OC(F)F)c2Cl)c(F)cc1Cl [pyraflufenethyl, pyraflufen-ethyl] | – | – | 2.51e-07 M | – | > 100 µM | 10 (100%) | – | – |
